# Tests used:
# Assay type in all cases: cell-based
# [1] = system: Alcaligens faecalis; assay: MIC in Tryptic Soy Broth, compounds alone and in mixtures; settings: Table 2, 28° C., 6 days
# Method: (§1) Determinations of minimum inhibitory concentrations (MIC's) of the two compounds (pyrithione salts and/or polymyxin sulfate) in a nutrient broth (alone and in mixtures) were conducted to evaluate interactions. Stock solutions of pyrithione salts and/or polymyxin salts were diluted in Tryptic Soy Broth (Difco), and the dilutions were inoculated with an equal volume of bacterial culture (10^6 /ml) or fungal spore suspension (10^5 /ml) in Tryptic Soy Broth and incubated at 28° C. for 3-7 days.
# (§2) The interactions of the antimicrobials were determined according to accepted procedures (M. C. Berenbaum [Tables 1 and 2] and P. F. Dougherty "Microdilution Transfer Plate Technique for Determining In Vitro Synergy of Antimicrobial Agents", ANTIMICROBIAL AGENTS AND CHEMOTHERAPY, Vol. 11, No. 2, p. 225-228 (Feb. 1977, American Society for Microbiology) [Tables 3 and 4]). The concentration of each agent in the combination that inhibits the organisms is expressed as a fraction of the concentration that causes the same effect when the same agent is tested alone (i.e., its fractional inhibitory concentration, FIC). If the sum of the FIC's is 1, the combination is additive in its antimicrobial effect; if the sum is <1, the combination is synergistic; and if the sum is >1, the combination is antagonistic.
# (§3) ^a Compounds were serially diluted in Tryptic soy Broth (DIFCO),
# (§4) ^b Each dilution contained 10^6 bacteria/ml of 10^5 fungi/ml.
# (§5) ^a Stock solutions of ZP in dimethylsulfoxide and PB in sterile water
# [2] = system: Aspergillus niger; assay: as above; settings: Table 2, 28° C., 7 days
# Method: as §1, §2, §3, §4, §5
# [3] = system: Aureobasidium pullulans; assay: as above; settings: Table 2, 28° C., 7 days
# Method: as §1, §2, §3, §4, §5
# [4] = system: Candida albicans; assay: as above; settings: Table 2, 28° C., 7 days
# Method: as §1, §2, §3, §4, §5
# [5] = system: Cephalosporium sp.; assay: as above; settings: Table 2, 28° C., 7 days
# Method: as §1, §2, §3, §4, §5
# [6] = system: Chaetomium globosium; assay: as above; settings: Table 2, 28° C., 7 days
# Method: as §1, §2, §3, §4, §5
# [7] = system: Citrobacter freundii; assay: as above; settings: Table 2, 28° C., 6 days
# Method: as §1, §2, §3, §4, §5
# [8] = system: Fusarium solani; assay: as above; settings: Table 2, 28° C., 7 days
# Method: as §1, §2, §3, §4, §5
# [9] = system: Gliocladium virens; assay: as above; settings: Table 2, 28° C., 7 days
# Method: as §1, §2, §3, §4, §5
# [10] = system: Penicillin pinophilium; assay: as above; settings: Table 2, 28° C., 7 days
# Method: as §1, §2, §3, §4, §5
# [11] = system: Proteus mirabilis; assay: as above; settings: Table 2, 28° C., 6 days
# Method: as §1, §2, §3, §4, §5
# [12] = system: Pseudomonas Stutzeri; assay: as above; settings: Table 2, 28° C., 6 days
# Method: as §1, §2, §3, §4, §5
# [13] = system: Pseudomonas aeruginosa; assay: as above; settings: Table 2, 28° C., 6 days
# Method: as §1, §2, §3, §4, §5
# [14] = system: Pseudomonas fluorescens; assay: as above; settings: Table 2, 28° C., 6 days
# Method: as §1, §2, §3, §4, §5
# [15] = system: Pseudomonas oleovorans; assay: as above; settings: Table 2, 28° C., 6 days
# Method: as §1, §2, §3, §4, §5
# [16] = system: Pseudomonas rubescens; assay: as above; settings: Table 2, 28° C., 6 days
# Method: as §1, §2, §3, §4, §5
# [17] = system: Trichophyton mentagrophytes; assay: as above; settings: Table 2, 28° C., 7 days
# Method: as §1, §2, §3, §4, §5
# [18] = system: Fusarium sp.; assay: as above; settings: Table 2, 28° C., 7 days
# Source text: as §3, §4, §5
# [19] = system: Candida albicans; assay: Checkerboard MIC Test in Tryptic Soy Broth; settings: Table 4, 28° C., 5 days
# Method: as §1, §2, §4
# [20] = system: Proteus mirabilis; assay: Checkerboard MIC Test in Tryptic Soy Broth; settings: Table 4, 28° C., 3 days
# Method: as §1, §2, §4
# [21] = system: Pseudomonas aeruginosa; assay: Checkerboard MIC Test in Tryptic Soy Broth; settings: Table 4, 28° C., 3 days
# Method: as §1, §2, §4
# [22] = system: Pseudomonas fluorescens; assay: Checkerboard MIC Test in Tryptic Soy Broth; settings: Table 4, 28° C., 3 days
# Method: as §1, §2, §4
# [23] = system: Trichophyton mentagrophytes; assay: Checkerboard MIC Test in Tryptic Soy Broth; settings: Table 4, 28° C., 5 days
# Method: as §1, §2, §4
# [24] = alone, Tryptic Soy Broth, PB sulfate 7730 units/mg
# [25] = concentration of the component in ZP+PB mixture, ZP/PB ratio 1/32-1/8
# [26] = concentration of the component in ZP+PB mixture, ZP/PB ratio 1/8-1
# [27] = alone, checkerboard, PE methanesulfonate, Na+, 14,310 units/mg
substance,measurement,setting,value
zinc pyrithione [ZP],"Minimum Inhibitory Concentration, Compound Used Alone",[1]; [24],10.7 ppm
same,"Minimum Inhibitory Concentration, Mixture","[1]; concentration of the component in ZP+PB mixture, ZP/PB ratio 8-32",6.7 ppm
same,"Minimum Inhibitory Concentration, Compound Used Alone",[2]; [24],32.0 ppm
same,"Minimum Inhibitory Concentration, Mixture",[2]; [25],16.0 ppm
same,"Minimum Inhibitory Concentration, Compound Used Alone",[3]; [24],8.0 ppm
same,"Minimum Inhibitory Concentration, Mixture","[3]; concentration of the component in ZP+PB mixture, ZP/PB ratio 1/32-1/16",4.0 ppm
same,"Minimum Inhibitory Concentration, Compound Used Alone",[4]; [24],8.0 ppm
same,"Minimum Inhibitory Concentration, Mixture",[4]; [25],4.0 ppm
same,"Minimum Inhibitory Concentration, Compound Used Alone",[5]; [24],16.0 ppm
same,"Minimum Inhibitory Concentration, Mixture","[5]; concentration of the component in ZP+PB mixture, ZP/PB ratio 1/16-1/8",4.0 ppm
same,"Minimum Inhibitory Concentration, Compound Used Alone",[6]; [24],67.0 ppm
same,"Minimum Inhibitory Concentration, Mixture",[6]; [26],13.3 ppm
same,"Minimum Inhibitory Concentration, Compound Used Alone",[7]; [24],8.0 ppm
same,"Minimum Inhibitory Concentration, Mixture","[7]; concentration of the component in ZP+PB mixture, ZP/PB ratio 16-64",3.3 ppm
same,"Minimum Inhibitory Concentration, Compound Used Alone",[8]; [24],64.0 ppm
same,"Minimum Inhibitory Concentration, Mixture",[8]; [26],13.3 ppm
same,"Minimum Inhibitory Concentration, Compound Used Alone",[9]; [24],80.0 ppm
same,"Minimum Inhibitory Concentration, Mixture","[9]; concentration of the component in ZP+PB mixture, ZP/PB ratio 1-2",24.0 ppm
same,"Minimum Inhibitory Concentration, Compound Used Alone",[10]; [24],16.0 ppm
same,"Minimum Inhibitory Concentration, Mixture","[10]; concentration of the component in ZP+PB mixture, ZP/PB ratio 1/8",4.0 ppm
same,"Minimum Inhibitory Concentration, Compound Used Alone",[11]; [24],4.0 ppm
same,"Minimum Inhibitory Concentration, Mixture","[11]; concentration of the component in ZP+PB mixture, ZP/PB ratio 1/32",2.0 ppm
same,"Minimum Inhibitory Concentration, Compound Used Alone",[12]; [24],4.0 ppm
same,"Minimum Inhibitory Concentration, Mixture","[12]; concentration of the component in ZP+PB mixture, ZP/PB ratio 16-128",4.0 ppm
same,"Minimum Inhibitory Concentration, Compound Used Alone",[13]; [24],288.0 ppm
same,"Minimum Inhibitory Concentration, Mixture","[13]; concentration of the component in ZP+PB mixture, ZP/PB ratio 128-256",112.0 ppm
same,"Minimum Inhibitory Concentration, Compound Used Alone",[14]; [24],106.7 ppm
same,"Minimum Inhibitory Concentration, Mixture","[14]; concentration of the component in ZP+PB mixture, ZP/PB ratio 8-16",4.7 ppm
same,"Minimum Inhibitory Concentration, Compound Used Alone",[15]; [24],6.7 ppm
same,"Minimum Inhibitory Concentration, Mixture","[15]; concentration of the component in ZP+PB mixture, ZP/PB ratio 16-32",4.0 ppm
same,"Minimum Inhibitory Concentration, Compound Used Alone",[16]; [24],3.3 ppm
same,"Minimum Inhibitory Concentration, Mixture","[16]; concentration of the component in ZP+PB mixture, ZP/PB ratio 256",3.3 ppm
same,"Minimum Inhibitory Concentration, Compound Used Alone",[17]; [24],8.0 ppm
same,"Minimum Inhibitory Concentration, Mixture","[17]; concentration of the component in ZP+PB mixture, ZP/PB ratio 1/4-1/2",8.0 ppm
same,"Minimum Inhibitory Concentration, Compound Used Alone",[18]; [24],64.0 ppm
same,"Minimum Inhibitory Concentration, Mixture",[18]; [26],18.7 ppm
same,"Minimum Inhibitory Concentration, Compound Used Alone",[19]; [27],16 ppm
same,"Minimum Inhibitory Concentration, Mixture Range","[19]; concentration of the component in ZP+PE mixtures, ZP/PE range 1/2048-1/4",1-8 ppm
same,"Minimum Inhibitory Concentration, Compound Used Alone",[20]; [27],8 ppm
same,"Minimum Inhibitory Concentration, Mixture Range","[20]; concentration of the component in ZP+PE mixtures, ZP/PE range 1/1024",4 ppm
same,"Minimum Inhibitory Concentration, Compound Used Alone",[21]; [27],128 ppm
same,"Minimum Inhibitory Concentration, Mixture Range","[21]; concentration of the component in ZP+PE mixtures, ZP/PE range 2-8",16-32 ppm
same,"Minimum Inhibitory Concentration, Compound Used Alone",[22]; [27],64 ppm
same,"Minimum Inhibitory Concentration, Mixture Range","[22]; concentration of the component in ZP+PE mixtures, ZP/PE range ≤1/128-4",≤1-16 ppm
same,"Minimum Inhibitory Concentration, Compound Used Alone",[23]; [27],16 ppm
same,"Minimum Inhibitory Concentration, Mixture Range","[23]; concentration of the component in ZP+PE mixtures, ZP/PE range 1/4-4",8-16 ppm
